#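 How tested: cells in 96-well plates exposed to compound for 48 hours at five concentrations. GI50 marks 50% less growth. TGI is the concentration that stops growth completely.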
# Experiments:
# Assay in all cases: NCI tumour cell line growth inhibition, 48 h
# [1] = tested on: 786-0 renal
# [2] = tested on: A498 renal
# [3] = tested on: HOP-92 NSCLC
# [4] = tested on: HT29 colon
# [5] = tested on: SK-OV-3 ovarian
# [6] = tested on: SNB-75 CNS
# [7] = tested on: SW-620 colon
# [8] = tested on: HCC-2998 colon
# [9] = tested on: NCI-H226 lung
# [10] = tested on: NCI-H522 lung
Compound,GI50 [1],TGI [1],GI50 [2],TGI [2],GI50 [3],TGI [3],GI50 [4],TGI [4],GI50 [5],TGI [5],GI50 [6],TGI [6],GI50 [7],TGI [7],TGI [8],TGI [9],TGI [10],GI50 [9],GI50 [10],GI50 [8]
CN(C)Cc1cccc(CN(C)C)[c]1[Sn]([Br])([c]1ccccc1)[c]1ccccc1,14.7 µM,29 µM,21.7 µM,47.6 µM,2.15 µM,9.74 µM,8.18 µM,71.8 µM,14.3 µM,30.6 µM,21.7 µM,66.2 µM,13.5 µM,29.7 µM,–,–,–,–,–,–
Cc1ccc(C(=O)CCC2C(=O)CC(C)(C)CC2=O)cc1,–,> 100 µM,–,–,–,> 100 µM,–,> 100 µM,–,> 100 µM,–,> 100 µM,–,> 100 µM,> 100 µM,> 100 µM,34.4 µM,–,–,–
O=C1CC2C(=O)C1C(C(=O)O)C2C(=O)O (centres undefined),–,> 100 µM,–,> 100 µM,–,> 100 µM,–,> 100 µM,–,> 100 µM,–,–,–,> 100 µM,–,> 100 µM,> 100 µM,–,–,–
COc1cccc(-c2nc(-c3ccc(NC(=O)c4ccccc4)cc3)[nH]c2-c2ccnc(Br)c2)c1,0.702 µM,5.88 µM,1.74 µM,6.5 µM,6.26 µM,> 100 µM,2.69 µM,> 100 µM,3.05 µM,8.24 µM,0.815 µM,> 100 µM,3.77 µM,> 100 µM,–,> 100 µM,> 100 µM,2.95 µM,3.17 µM,–
O=C(N/C(=C\c1ccc([N+](=O)[O-])cc1)c1nc2ccc(Cl)cc2[nH]1)c1ccccc1,–,53 µM,–,–,–,34.3 µM,–,43.9 µM,–,94.6 µM,–,–,–,61.3 µM,33.8 µM,–,27.8 µM,–,–,–
Cc1cccc2c1O/C(=C\c1ncc([N+](=O)[O-])n1C)C2=O,0.28 µM,0.969 µM,–,–,0.279 µM,1.64 µM,0.104 µM,0.404 µM,0.812 µM,3.83 µM,0.781 µM,3.36 µM,0.0888 µM,0.537 µM,3.59 µM,4.29 µM,0.523 µM,1.08 µM,0.188 µM,0.881 µM
C/C=C1\C(=O)O[C@@H]2C1C[C@@H]1O[C@H]2[C@H](C)CCC/C(C)=C/CC[C@@]1(C)O (some centres undefined),3.21 µM,14.2 µM,–,–,7.62 µM,31.5 µM,25.4 µM,> 100 µM,14.1 µM,37.4 µM,9.81 µM,33.4 µM,4.14 µM,15 µM,6.33 µM,–,7.06 µM,–,2.29 µM,2.95 µM
CC1(C)CCC2(C(=O)O)CC[C@]3(C)C(=CCC4C5(C)CC[C@H](OC6OC(C(=O)O)C(O)C(OC7OC(CO)C(O)C(O)C7O)C6OC6OC(CO)C(O)C(O)C6O)C(C)(C)C5CCC43C)C2C1 (some centres undefined),> 100 µM,> 100 µM,> 100 µM,> 100 µM,> 100 µM,> 100 µM,40.9 µM,> 100 µM,> 100 µM,> 100 µM,–,–,> 100 µM,> 100 µM,–,> 100 µM,> 100 µM,> 100 µM,38.4 µM,–
CCN(CC)CCOC(=O)/C(=C/c1ccc(OC)cc1)c1cc(OC)c(OC)c(OC)c1,–,98.8 µM,–,8.64 µM,–,54.1 µM,–,18 µM,–,–,–,11.6 µM,–,> 100 µM,–,54.5 µM,9.32 µM,–,–,–
C[C@@H](NC1CCC[C@@H]1O)c1ccccc1 (some centres undefined),–,> 100 µM,–,–,–,> 100 µM,–,> 100 µM,–,> 100 µM,–,> 100 µM,–,> 100 µM,> 100 µM,> 100 µM,–,–,–,–
NCCCn1c2c(c3cc4c(cc3c1=O)OCO4)C(=O)c1ccccc1-2,1.49 µM,2.88 µM,–,–,0.437 µM,2.11 µM,0.0575 µM,> 100 µM,10.5 µM,> 100 µM,–,–,–,–,0.718 µM,24.8 µM,4.39 µM,4.09 µM,1.92 µM,0.237 µM
C[C@@H](Oc1cc(NS(=O)(=O)N2CCC2)nc(SCc2cccc(F)c2F)n1)[C@@H](O)CO,> 100 µM,> 100 µM,–,–,> 100 µM,> 100 µM,> 100 µM,> 100 µM,> 100 µM,> 100 µM,> 100 µM,> 100 µM,> 100 µM,> 100 µM,> 100 µM,> 100 µM,> 100 µM,> 100 µM,> 100 µM,> 100 µM

# Reference: PubChem BioAssay (NCI)
